Assay results published in PubChem BioAssay (NCI).
Several values for one entry are separate records, joined by “and”; a condition that tells them apart may be missing. Equal entries are not always repeated.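 Results reflect a 48-hour exposure of cells in 96-well plates to compound at five concentrations. GI50 marks 50% less growth. TGI: total growth inhibition.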

Columns and labels:
Experiment in all cases: NCI tumour cell line growth inhibition, 48 h
DMS 114 small cell lung = test system: DMS 114 small cell lung
HOP-18 NSCLC = test system: HOP-18 NSCLC
HS 578T breast = test system: HS 578T breast
KM20L2 colon = test system: KM20L2 colon
LXFL 529 NSCLC = test system: LXFL 529 NSCLC
MDA-MB-435 = test system: MDA-MB-435
MDA-N = test system: MDA-N
P388/ADR leukemia = test system: P388/ADR leukemia
RXF-631 renal = test system: RXF-631 renal
SN12K1 renal = test system: SN12K1 renal
SNB-78 CNS = test system: SNB-78 CNS

CC1CC(C)CC(C)C(O)/C(C#N)=C/C=C/CC(C2CCCC2C(=O)O)OC(=O)CC(O)C(C)C1 (stereo unspecified)
TGI (DMS 114 small cell lung): < 0.016 µM | TGI (HOP-18 NSCLC): 0.0612 µM | GI50 (HS 578T breast): 0.0395 µM | TGI (HS 578T breast): 0.223 µM and 0.0673 µM | TGI (KM20L2 colon): 1.43 µM | TGI (LXFL 529 NSCLC): 0.0397 µM | GI50 (MDA-MB-435): 0.0281 µM | TGI (MDA-MB-435): 0.0871 µM and 0.0731 µM | GI50 (MDA-N): 0.0188 µM | TGI (MDA-N): 0.0646 µM | TGI (P388/ADR leukemia): < 0.0143 µM | TGI (RXF-631 renal): 0.254 µM | TGI (SN12K1 renal): < 0.0223 µM | TGI (SNB-78 CNS): 0.13 µM

Cc1c(OC(C)C(=O)O)ccc2c(-c3ccccc3)cc(=O)oc12 (stereo unspecified)
TGI (DMS 114 small cell lung): > 100 µM | TGI (HOP-18 NSCLC): > 100 µM | TGI (KM20L2 colon): > 100 µM | TGI (LXFL 529 NSCLC): > 100 µM | TGI (RXF-631 renal): > 100 µM | TGI (SNB-78 CNS): > 100 µM

Cn1c(=O)c(N=Nc2c(=O)n(C)c(=O)n3c2[nH]c2ccccc23)c2[nH]c3ccccc3n2c1=O
TGI (DMS 114 small cell lung): > 100 µM | TGI (HOP-18 NSCLC): > 100 µM | TGI (KM20L2 colon): > 100 µM | TGI (LXFL 529 NSCLC): > 100 µM | TGI (RXF-631 renal): > 100 µM | TGI (SNB-78 CNS): > 100 µM

O=C1C2C3C=C4c5ccccc5N(c5ccccc5)C4(C2C(=O)N1c1ccccc1)C1C(=O)N(c2ccccc2)C(=O)C31 (stereo unspecified)
TGI (DMS 114 small cell lung): > 100 µM | TGI (HOP-18 NSCLC): > 100 µM | TGI (KM20L2 colon): > 100 µM | TGI (LXFL 529 NSCLC): > 100 µM | TGI (RXF-631 renal): > 100 µM | TGI (SNB-78 CNS): > 100 µM

O=c1cc(-c2cccs2)[nH]c2cc3c(cc12)OCO3
TGI (DMS 114 small cell lung): > 24.5 µM | TGI (HOP-18 NSCLC): > 100 µM | TGI (KM20L2 colon): 41.3 µM | TGI (LXFL 529 NSCLC): > 100 µM | TGI (RXF-631 renal): > 100 µM | TGI (SNB-78 CNS): > 100 µM

CCOC(=O)Cc1nc2ccc3c(c2[nH]c1=O)C(=O)c1ccccc1C3=O
TGI (DMS 114 small cell lung): > 100 µM | TGI (HOP-18 NSCLC): 91.6 µM | TGI (KM20L2 colon): > 100 µM | TGI (LXFL 529 NSCLC): > 100 µM | TGI (RXF-631 renal): > 100 µM | TGI (SNB-78 CNS): > 100 µM

COC(=O)/C(=N\NC(C)(C)C)C(C(=O)OC)C(=O)C(=O)Nc1cc(Cl)ccc1Cl (stereo unspecified)
TGI (DMS 114 small cell lung): > 100 µM | TGI (HOP-18 NSCLC): > 100 µM | TGI (KM20L2 colon): > 100 µM | TGI (LXFL 529 NSCLC): > 100 µM | TGI (RXF-631 renal): > 100 µM | TGI (SNB-78 CNS): > 100 µM

Cc1nc(C(N)=O)c(N)n1CCN1CCN(C(=O)CCCCCCCCCCNC2N=CNc3nc[nH]c32)CC1 (stereo unspecified)
TGI (DMS 114 small cell lung): > 100 µM | TGI (HOP-18 NSCLC): > 100 µM | TGI (KM20L2 colon): > 100 µM | TGI (LXFL 529 NSCLC): 71.6 µM | TGI (RXF-631 renal): > 100 µM | TGI (SNB-78 CNS): > 100 µM
